Patent US4943579A, “Water soluble prodrugs of camptothecin” (priority 1987, dated 1990)
In brackets after ≈: the same amount, converted by molar mass. Counter-ions that a name gives are not always drawn. Like-named read-outs stand apart in the source and are kept apart here.

Tests used:
[1] = In vitro murine plasma hydrolysis of prodrugs; format: in vitro ADME; details: mouse, initial drug concentration 50 mcg/ml, read-out: t1/2 of hydrolysis in murine plasma
From the text: (§1) The data are shown to reflect the relative hydrolysis rates as measured by t1/2, the time required for the concentration of the drug to become one half of the starting concentration. Freshly obtained samples of human and murine plasma were used in these studies.
(§2) ^(a) Initial drug concentration (50 mcg/ml)

Aqueous solubility = format: physicochemical; details: water
Protocol: (§3) Table 1 represents the aqueous solubility and the anti-tumor activity of these compounds. The anti-tumor testing was carried out in CDF-1 mice in which were implanted L-1210 lymphoid leukemia, and the drug is delivered intraperitoneally on a schedule of QD4X2.

[2] = In vitro human plasma hydrolysis of prodrugs; format: in vitro ADME; details: initial drug concentration 50 mcg/ml, read-out: t1/2 of hydrolysis in human plasma
From the text: as §1, §2

L-1210 lymphoid leukemia = assay: Anti-tumor activity in CDF-1 mice implanted with L-1210 lymphoid leukemia (IP/IP, QD4 × 2); format: in vivo; details: Mus musculus, read-out: T/C; for response vs control in vivo at 30 mg/kg: 30 mg/Kg per injection; for response vs control in vivo at 50 mg/kg: 50 mg/Kg per injection
Protocol: as §3

[3] = subsequent biological evaluation in earlier reports; cited from earlier work
leukemia L-1210 = details: mice; cited from earlier work
[4] = preclinical, beagle and rhesus monkey; cited from earlier work
[5] = cited from earlier work
Walker 256 tumor = details: rats; cited from earlier work
[6] = early clinical studies; cited from earlier work
[7] = animal models; Wani et al. 1980; cited from earlier work

SMILES	half-life [1] [min]	solubility (Aqueous solubility; read-out: Aqueous solubility) [µg/mL]	half-life [2] [min]	response vs control in vivo at 30 mg/kg (L-1210 lymphoid leukemia; L1210, IP/IP, QD4 × 2) [%]	other results
CC[C@@]1(OC(=O)CN)C(=O)OCc2c1cc1n(c2=O)Cc2cc3ccccc3nc2-1 [Formula 7, Camptothecin-20-O-glycinate.HCl]	36	6000	15		response vs control in vivo at 15 mg/kg (L-1210 lymphoid leukemia; L1210, 15 mg/Kg per injection, IP/IP, QD4 × 2): 162%
CC[C@@]1(OC(=O)CNC)C(=O)OCc2c1cc1n(c2=O)Cc2cc3ccccc3nc2-1 [Formula 8]	28	4000	13	191	
CCNCC(=O)O[C@]1(CC)C(=O)OCc2c1cc1n(c2=O)Cc2cc3ccccc3nc2-1 [Formula 9]	40	8000	18	170	
CC[C@@]1(OC(=O)C(N)CCCCCN)C(=O)OCc2c1cc1n(c2=O)Cc2cc3ccccc3nc2-1 (some centres unmarked) [Formula 12]	48	15000	20		response vs control in vivo at 50 mg/kg (L-1210 lymphoid leukemia; L1210, IP/IP, QD4 × 2): 253%
CC[C@@]1(O)C(=O)OCc2c1cc1n(c2=O)Cc2cc3ccccc3nc2-1 [Camptothecin]					solubility (Aqueous solubility): 50 µg/mL (≈ 144 µM); Toxicity [3]: highly toxic; Carcinostatic activity, leukemia L-1210 (leukemia L-1210): inhibitor activity; Eosinophilia and bone marrow depression [4]: moderate eosinophilia and bone marrow depression; Hepatotoxicity [4]: Minimal hepatotoxicity; Major dose-limiting toxic effect [4]: Hemorrhagic enterocolitis; Solubility in aqueous vehicles ([5]; aqueous vehicles suitable for parenteral administration): practically insoluble; Carcinostatic activity, Walker 256 tumor (Walker 256 tumor): inhibitor activity; response vs control in vivo at 8 mg/kg (L-1210 lymphoid leukemia; L1210, ip): 197%
CC[C@@](O)(C(=O)O)c1cc2n(c(=O)c1CO)Cc1cc3ccccc3nc1-2 [Sodium camptothecin]					Clinical outcome [6]: disappointing; Clinical toxicity [6]: unexpected toxicity that precluded achievement of therapeutically useful doses; Potency relative to parent camptothecin [7]: 10-20%; Solubility in water ([5]; in water): > 50000 µg/mL
CCN(CC)CC(=O)O[C@]1(CC)C(=O)OCc2c1cc1n(c2=O)Cc2cc3ccccc3nc2-1 [Formula 10, Camptothecin-20-O-(N,N-diethyl)glycinate.HCl]		5000	45	256	
CC[C@@]1(OP(=O)(O)O)C(=O)OCc2c1cc1n(c2=O)Cc2cc3ccccc3nc2-1 [Formula 15, Camptothecin-20-phosphate sodium salt]	27	8000	20		response vs control in vivo at 44 mg/kg (L-1210 lymphoid leukemia; L1210, 44 mg/Kg per injection, IP/IP, QD4 × 2): 192%
CC[C@@]1(OC(=O)C(N)CCC(=O)O)C(=O)OCc2c1cc1n(c2=O)Cc2cc3ccccc3nc2-1 (some centres unmarked) [Formula 13]	35	6000	18		response vs control in vivo at 50 mg/kg (L-1210 lymphoid leukemia; L1210, IP/IP, QD4 × 2): 154%
CC[C@@]1(OC(=O)CCC(=O)O)C(=O)OCc2c1cc1n(c2=O)Cc2cc3ccccc3nc2-1 [Formula 14, Camptothecin-20-O-hemisuccinate sodium salt]	40	13000	16		response vs control in vivo at 47 mg/kg (L-1210 lymphoid leukemia; L1210, 47 mg/Kg per injection, IP/IP, QD4 × 2): 200%
